Assay results from patent US10597388B2, “Pyridazinone herbicides” (FMC CORPORATION, priority 2014, dated 2020).

Columns and labels:
Assay in all cases: Test D controlled growth environment herbicide test, pre- and postemergence
Format in all cases: in vivo
[1] = tested on: bromegrass, downy (downy bromegrass, Bromus tectorum)
Procedure, shortened: (§1)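 Pre-emergence: seeds sown in silt loam soil were sprayed with compound in a non-phytotoxic solvent mix containing surfactant. Post-emergence: plants at 2 to 18 cm (1- to 4-leaf stage) in peat moss/vermiculite medium got the same formulation. Visual 0–100 rating versus controls after 14 to 21 d.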

[2] = tested on: barley, spring (spring barley, Hordeum vulgare)
Procedure, shortened: as §1

[3] = tested on: galium (catchweed bedstraw, Galium aparine)
Procedure, shortened: as §1

[4] = tested on: kochia (Kochia scoparia)
Procedure, shortened: as §1

[5] = tested on: foxtail, green (green foxtail, Setaria viridis)
Procedure, shortened: as §1

[6] = tested on: canarygrass (Phalaris minor)
Procedure, shortened: as §1

[7] = tested on: speedwell (bird's-eye speedwell, Veronica persica)
Procedure, shortened: as §1

[8] = tested on: lambsquarters (Chenopodium album)
Procedure, shortened: as §1

[9] = tested on: mustard, wild (wild mustard, Sinapis arvensis)
Procedure, shortened: as §1

[10] = tested on: chamomile (scentless chamomile, Matricaria inodora)
Procedure, shortened: as §1

[11] = tested on: barley, winter (winter barley, Hordeum vulgare)
Procedure, shortened: as §1

[12] = tested on: bluegrass (annual bluegrass, Poa annua)
Procedure, shortened: as §1

[13] = tested on: oat, wild (wild oat, Avena fatua)
Procedure, shortened: as §1

[14] = Postemergence, 31 g ai/ha, scale 0 to 100 (0 no effect, 100 complete control)
[15] = Postemergence, 125 g ai/ha, visual rating on scale 0 (no effect) to 100 (complete control), 14 to 21 d
[16] = Postemergence, 250 g ai/ha, scale 0 to 100 (0 no effect, 100 complete control)
[17] = Preemergence, 62 g ai/ha, scale 0 to 100 (0 no effect, 100 complete control)
[18] = Preemergence, 125 g ai/ha, scale 0 to 100 (0 no effect, 100 complete control)
[19] = Preemergence, 250 g ai/ha, scale 0 to 100 (0 no effect, 100 complete control)
[20] = postemergence, 62 g ai/ha, scale 0 to 100, 0 no effect, 100 complete control

COC(=O)Oc1c(C)nn(C)c(=O)c1-c1c(C)sc2c(C)cc(C)cc12 [Compound 81]
55: Plant response rating (scale of 0 to 100), Speedwell ([7]; Preemergence, 31 g ai/ha) | Plant response rating (scale of 0 to 100), Lambsquarters ([8]; Preemergence, 31 g ai/ha)
20: Plant response rating (scale of 0 to 100), Bromegrass, Downy ([1]; Preemergence, 31 g ai/ha) | Plant response rating, Bluegrass [12, 18] | Plant response rating, Bluegrass [12, 20]
50: Mustard, Wild plant response rating [9, 14] | Plant response rating, Mustard, Wild [9, 19]
70: Plant response rating, Lambsquarters [8, 18]
40: Plant response rating, Bluegrass [12, 16]
98: Plant response rating, Oat, Wild [13, 16]
0: Barley, Spring plant response rating [2, 14] | Plant response rating, Barley, Spring [2, 15] | Plant response rating (scale of 0 to 100), Barley, Spring ([2]; Preemergence, 31 g ai/ha) | Plant response rating, Barley, Spring [2, 17] | Plant response rating, Barley, Spring [2, 18] | Plant response rating, Barley, Spring [2, 20] | Plant response rating (scale of 0 to 100), Kochia ([4]; Preemergence, 31 g ai/ha) | Plant response rating, Kochia [4, 17] | Plant response rating (scale of 0 to 100), Mustard, Wild ([9]; Preemergence, 31 g ai/ha) | Plant response rating, Mustard, Wild [9, 17] | Plant response rating, Mustard, Wild [9, 18] | Barley, Winter plant response rating [11, 14] | Plant response rating, Barley, Winter [11, 15] | Plant response rating (scale of 0 to 100), Barley, Winter ([11]; Preemergence, 31 g ai/ha) | Plant response rating, Barley, Winter [11, 17] | Plant response rating, Barley, Winter [11, 20] | Plant response rating (scale of 0 to 100), Bluegrass ([12]; Preemergence, 31 g ai/ha)
5: Plant response rating, Barley, Spring [2, 19] | Bluegrass plant response rating [12, 14]
25: Plant response rating (scale of 0 to 100), Galium ([3]; Preemergence, 31 g ai/ha) | Plant response rating, Kochia [4, 18]
80: Foxtail, Green plant response rating [5, 14] | Plant response rating, Speedwell [7, 20] | Plant response rating, Mustard, Wild [9, 16]
75: Plant response rating, Bromegrass, Downy [1, 16] | Plant response rating, Bromegrass, Downy [1, 19] | Plant response rating (scale of 0 to 100), Foxtail, Green ([5]; Preemergence, 31 g ai/ha) | Canarygrass plant response rating [6, 14] | Plant response rating (scale of 0 to 100), Canarygrass ([6]; Preemergence, 31 g ai/ha) | Speedwell plant response rating [7, 14]
45: Plant response rating, Bromegrass, Downy [1, 17] | Plant response rating, Barley, Winter [11, 18] | Plant response rating, Barley, Winter [11, 19]
30: Plant response rating, Bluegrass [12, 15]
100: Galium plant response rating [3, 14] | Plant response rating, Galium [3, 15] | Plant response rating, Galium [3, 16] | Plant response rating, Galium [3, 20] | Plant response rating, Foxtail, Green [5, 16] | Plant response rating, Foxtail, Green [5, 18] | Plant response rating, Foxtail, Green [5, 19] | Plant response rating, Canarygrass [6, 16] | Plant response rating, Canarygrass [6, 19] | Plant response rating, Speedwell [7, 16] | Plant response rating, Speedwell [7, 18] | Plant response rating, Speedwell [7, 19] | Plant response rating, Lambsquarters [8, 15] | Plant response rating, Lambsquarters [8, 16] | Plant response rating, Lambsquarters [8, 20] | Chamomile plant response rating [10, 14] | Plant response rating, Chamomile [10, 15] | Plant response rating, Chamomile [10, 16] | Plant response rating, Chamomile [10, 20]
10: Plant response rating, Barley, Spring [2, 16] | Plant response rating, Barley, Winter [11, 16] | Plant response rating, Bluegrass [12, 17]
60: Kochia plant response rating [4, 14] | Plant response rating, Speedwell [7, 17] | Plant response rating, Mustard, Wild [9, 15] | Plant response rating, Mustard, Wild [9, 20] | Plant response rating, Bluegrass [12, 19]
85: Plant response rating, Galium [3, 18] | Plant response rating, Kochia [4, 20] | Plant response rating, Canarygrass [6, 20] | Oat, Wild plant response rating [13, 14] | Plant response rating (scale of 0 to 100), Oat, Wild ([13]; Preemergence, 31 g ai/ha) | Plant response rating, Oat, Wild [13, 17] | Plant response rating, Oat, Wild [13, 18]
65: Plant response rating, Bromegrass, Downy [1, 15] | Plant response rating, Galium [3, 17] | Plant response rating, Foxtail, Green [5, 17] | Plant response rating, Canarygrass [6, 17]
90: Plant response rating, Kochia [4, 15] | Plant response rating, Oat, Wild [13, 20]
35: Plant response rating, Bromegrass, Downy [1, 20]
95: Plant response rating, Galium [3, 19] | Plant response rating, Kochia [4, 16] | Plant response rating, Foxtail, Green [5, 15] | Plant response rating, Foxtail, Green [5, 20] | Plant response rating, Canarygrass [6, 15] | Plant response rating, Canarygrass [6, 18] | Plant response rating, Speedwell [7, 15] | Lambsquarters plant response rating [8, 14] | Plant response rating, Lambsquarters [8, 17] | Plant response rating, Lambsquarters [8, 19] | Plant response rating, Oat, Wild [13, 15] | Plant response rating, Oat, Wild [13, 19]
15: Bromegrass, Downy plant response rating [1, 14] | Plant response rating, Bromegrass, Downy [1, 18] | Plant response rating, Kochia [4, 19]
